In US20220273807A1, “CONJUGATES FOR USE IN METHODS OF TREATING CANCER” (AstraZeneca AB, priority 2018, published 2022):

Experiments:
[1] = tested on: NCI-H1048 tumor cells; experiment: Human small cell lung cancer tumor model (NCI-H1048), single agent and combination; type: in vivo, C.B.-17 SCID female mice; conditions: AZD2014 15 mg/kg daily (qd), oral; p<0.05
Protocol: Compound 1 was formulated in citrate/phosphate buffer pH 5.0 containing 4.5% w/v glucose and dosed intravenously (iv) in a volume of 5 ml/kg. AZD2014 was formulated in 0.5% hydroxypropyl methylcellulose/0.1% Tween 80 and dosed oral in a volume of 10 ml/kg 5×10^6 NCI-H1048 tumor cells were injected subcutaneously in the right flank of C.B.-17 SCID female mice in a volume of 0.1 mL containing 50% matrigel. Tumor volume (measured by caliper) was calculated using the formula: length (mm) x width (mm)^2×0.52. For efficacy studies, mice were randomized based on tumor volume and growth inhibition was assessed by comparison of the differences in tumor volume between control and treated groups. Dosing began when mean tumor volume reached approximately 124 mm^3.

[2] = tested on: RS4; 11 cells; experiment: Efficacy in RS4:11 xenograft model; type: in vivo, mouse; conditions: Compound A 5 mg/kg
Protocol: Preparation of Compound PBS formulations for dosinq RS4:11 efficacy study: The appropriate amounts of Compound 1 were weighed into a volumetric flask. 10 mL Dulbecc's Phosphate Buffered Saline (PBS) was added and formulations were then stirred until the compound dissolved entirely.
Formulation of Compound A in 30% w/v HP-β-CD
30% w/v HP-β-CD vehicle was prepared. 3 g HP-β-CD (Roquette Kleptose, parenteral grade) was weighed into a 10 mL volumetric flask and 8 mL WFI added and stirred (or sonicated) to dissolve. Once dissolved the volume was made up to 10 mL with WFI.
The appropriate amount of Compound A was weighed into a 10 mL volumetric flask. 8 mL of 30% w/v HP-β-CD vehicle was then added and the formulation stirred. 1M MSA was added dropwise until the pH was reduced to about 2. The formulation was then stirred until the compound dissolved entirely. The pH was measured and adjusted to pH 4, dropwise using 1M MSA or NaOH. […] The final pH was measured and recorded and the formulation filtered through a 0.22 uM filter prior to administration. […]
On specific day, for each treated group, calculate Inhibition value by formula: Inhibition %=(CG−TG)*100/(CG−1), in which “CG” means the geometric mean of rtv of the control group and “TG” means the Geometric Mean of Relative Tumor Volume (rtv) of the treated group. “CG” should use the corresponding control group of the treated group when calculated. […]

[3] = tested on: OCI-Ly10 tumor cells; experiment: Human DLBCL xenograft model (OCI-Ly10), single agent and combination; type: in vivo, C.B.-17 SCID female mice; conditions: single agent acalabrutinib 12.5 mg/kg bid po
Protocol: 5×10^6 OCI-Ly10 tumor cells were injected subcutaneously in the right flank of C.B.-17 SCID female mice in a volume of 0.1 mL containing 50% matrigel. Compound 1 was formulated in citrate/phosphate buffer pH 5.0, diluted 1 to 10 with 5% glucose containing 1% w/v Kolliphor HS15, and dosed as a weekly intravenous (iv) administration at a volume of 5 mL/kg at a dose of 103 mg/kg (30 mg/kg API). Acalabrutinib was formulated in 0.5% hydroxypropyl methyl cellulose/0.2% Tween 80, and dosed twice a day (bid) as an oral (po) administration at a volume of 10 mL/kg at a dose of 12.5 mg/kg. Tumor volumes (measured by caliper), animal body weight, and tumor condition were recorded twice weekly for the duration of the study. The tumor volume was calculated using the formula: length (mm) x width (mm)^2×0.52. For efficacy studies, growth inhibition from the start of treatment was assessed by comparison of the differences in tumor volume between control and treated groups. Dosing began when mean tumor size reached approximately 166 mm3.

SMILES: CNC(=O)c1cccc(-c2ccc3c(N4CCOC[C@@H]4C)nc(N4CCOC[C@@H]4C)nc3n2)c1 [AZD2014, vistusertib]
- anti-tumor activity, TGI [1]: 84%

SMILES: CN(CCO)CC[C@H](CSc1ccccc1)Nc1ccc(S(=O)(=O)NC(=O)c2ccc(N3CCC([C@@H](O)c4ccccc4-c4ccc(Cl)cc4)CC3)cc2)cc1S(=O)(=O)C(F)(F)F [Compound A]
- % Inhibition Day (47) [2]: >100%
- % Regression Day(47) [2]: 90%

SMILES: CC#CC(=O)N1CCC[C@H]1c1nc(-c2ccc(C(=O)Nc3ccccn3)cc2)c2c(N)nccn12 [acalabrutinib]
- tumor growth inhibition (TGI) [3]: ~58%
